From ChEMBL document CHEMBL4765403, “Augmentation of the antitumor effects of PARP inhibitors in triple-negative breast cancer via degradation by hydrophobic tagging modulation” (Eur J Med Chem, 2020)
Active and inactive are the calls of the source. The rule behind the calls is not given here.

Columns and labels:
[1] = biological target: Poly [ADP-ribose] polymerase 1 (Homo sapiens) (UniProt P09874); assay: Induction of PARP1 degradation in triple-negative human MDA-MB-231 cells assessed as fold change in PARP1 protein expression at 0.01 uM incubated for 48 hrs by Western blot analysis relative to control; type: cell-based
[2] = biological target: Poly [ADP-ribose] polymerase 1 (Homo sapiens) (UniProt P09874); assay: Induction of PARP1 degradation in human MDA-MB-231 cells assessed as fold change in PARP1 protein expression at 5 uM pretreated with caspase I inhibitor, Ac-YVAD-cmk for 2 hrs followed by incubation with compound for 48 hrs by Western blot analysis relative to control; type: cell-based
[3] = biological target: Poly [ADP-ribose] polymerase 1 (Homo sapiens) (UniProt P09874); assay: Induction of PARP1 degradation in triple-negative human MDA-MB-231 cells assessed as fold change in PARP1 protein expression at 0.1 uM incubated for 48 hrs by Western blot analysis relative to control; type: cell-based
[4] = tested on: MDA-MB-231; assay: Induction of apoptosis in human MDA-MB-231 cells assessed as upregulation in Bax gene expression at 5 to 10 uM incubated for 24 to 48 hrs by RT-PCR analysis; type: functional, cell-based; conditions: dose 5-10 µM, time 24-48 hrs
[5] = tested on: MDA-MB-231; assay: Induction of apoptosis in human MDA-MB-231 cells assessed as upregulation in p21 gene expression at 5 to 10 uM incubated for 24 to 48 hrs by RT-PCR analysis; type: functional, cell-based; conditions: dose 5-10 µM, time 24-48 hrs
[6] = biological target: Poly [ADP-ribose] polymerase 1 (Homo sapiens) (UniProt P09874); assay: Induction of PARP1 degradation in triple-negative human MDA-MB-468 cells assessed as fold change in PARP1 protein expression at 5 uM incubated for 24 hrs by Western blot analysis relative to control; type: cell-based
[7] = biological target: Poly [ADP-ribose] polymerase 1 (Homo sapiens) (UniProt P09874); assay: Induction of PARP1 degradation in human MDA-MB-231 cells at 2.5 uM incubated for 48 hrs by Western blot analysis relative to control; type: cell-based
[8] = biological target: Poly [ADP-ribose] polymerase 1 (Homo sapiens) (UniProt P09874); assay: Induction of PARP1 degradation in triple-negative human MDA-MB-231 cells assessed as fold change in PARP1 protein expression at 2.5 uM incubated for 48 hrs by Western blot analysis relative to control; type: cell-based
[9] = tested on: MDA-MB-231; assay: Cytotoxicity against human MDA-MB-231 cells assessed as reduction in cell viability measured after 96 hrs by CCK8 assay; type: functional, cell-based; conditions: MDA-MB-231, 96 h
[10] = tested on: MDA-MB-231; assay: Induction of apoptosis in human MDA-MB-231 cells assessed as upregulation in PUMA gene expression at 5 to 10 uM incubated for 24 to 48 hrs by RT-PCR analysis; type: functional, cell-based; conditions: dose 5-10 µM, time 24-48 hrs
[11] = biological target: Poly [ADP-ribose] polymerase 1 (Homo sapiens) (UniProt P09874); assay: Induction of PARP1 degradation in triple-negative human MDA-MB-231 cells assessed as fold change in PARP1 protein expression at 1 uM incubated for 48 hrs by Western blot analysis relative to control; type: cell-based
[12] = biological target: Poly [ADP-ribose] polymerase 1 (Homo sapiens) (UniProt P09874); assay: Induction of PARP1 degradation in human MDA-MB-231 cells at 5 uM incubated for 48 hrs in presence of proteasome inhibitor, bortezomib by immunoblotting analysis; type: cell-based
[13] = tested on: MDA-MB-231; assay: Induction of endoplasmic reticulum stress in human MDA-MB-231 cells assessed as upregulation in ATF4 gene expression at 5 to 10 uM incubated for 24 to 48 hrs by RT-PCR analysis; type: functional, cell-based; conditions: dose 5-10 µM, time 24-48 hrs
[14] = biological target: Poly [ADP-ribose] polymerase 1 (Homo sapiens) (UniProt P09874); assay: Induction of PARP1 degradation in triple-negative human MDA-MB-231 cells assessed as fold change in PARP1 protein expression at 1 uM incubated for 24 hrs by Western blot analysis relative to control; type: cell-based
[15] = biological target: Poly [ADP-ribose] polymerase 1 (Homo sapiens) (UniProt P09874); assay: Induction of PARP1 degradation in human MDA-MB-231 cells assessed as fold change in PARP1 protein expression at 5 uM incubated for 48 hrs in presence of pan-caspase inhibitor, Z-VAD-FMK by Western blot analysis; type: cell-based
[16] = biological target: Poly [ADP-ribose] polymerase 1 (Homo sapiens) (UniProt P09874); assay: Induction of PARP1 degradation in triple-negative human MDA-MB-231 cells assessed as fold change in PARP1 protein expression at 0.1 uM incubated for 24 hrs by Western blot analysis relative to control; type: cell-based
[17] = biological target: Poly [ADP-ribose] polymerase 1 (Homo sapiens) (UniProt P09874); assay: Induction of PARP1 degradation in human MDA-MB-231 cells at 5 uM pretreated for 2 hrs with proteasome inhibitor, carfilzomib for 2 hrs followed by incubation with compound for 48 hrs by immunoblotting analysis; type: cell-based
[18] = tested on: MDA-MB-231; assay: Induction of endoplasmic reticulum stress in human MDA-MB-231 cells assessed as increase in CHOP protein expression at 5 uM measured after 24 to 72 hrs by Western blot analysis; type: functional, cell-based; conditions: time 24-72 hrs
[19] = tested on: MDA-MB-231; assay: Induction of apoptosis in human MDA-MB-231 cells assessed as increase in p21 protein expression at 5 uM incubated for 24 to 48 hrs by Western blot analysis; type: functional, cell-based; conditions: time 24-48 hrs
[20] = tested on: MDA-MB-231; assay: Induction of endoplasmic reticulum stress in human MDA-MB-231 cells assessed as upregulation in XBP-1s gene expression at 5 to 10 uM incubated for 24 to 48 hrs by RT-PCR analysis; type: functional, cell-based; conditions: dose 5-10 µM, time 24-48 hrs
[21] = biological target: Poly [ADP-ribose] polymerase 1 (Homo sapiens) (UniProt P09874); assay: Induction of PARP1 degradation in triple negative human MDA-MB-231 cells assessed as fold change in PARP1 protein expression at 5 uM incubated for 48 hrs by Western blot analysis relative to control; type: cell-based
[22] = tested on: MDA-MB-468; assay: Induction of endoplasmic reticulum stress in human MDA-MB-468 cells assessed as increase in XBP-1s protein expression at 5 uM incubated for 48 hrs by Western blot analysis; type: functional, cell-based
[23] = biological target: Poly [ADP-ribose] polymerase 1 (Homo sapiens) (UniProt P09874); assay: Induction of PARP1 degradation in human MDA-MB-468 cells assessed as fold change in PARP1 protein expression at 5 uM pretreated with caspase I inhibitor, Ac-YVAD-cmk for 2 hrs followed by incubation with compound for 48 hrs by Western blot analysis relative to control; type: cell-based
[24] = tested on: MDA-MB-231; assay: Induction of apoptosis in human MDA-MB-231 cells assessed as downregulation in Bcl2 gene expression at 5 to 10 uM incubated for 24 to 48 hrs by RT-PCR analysis; type: functional, cell-based; conditions: dose 5-10 µM, time 24-48 hrs
[25] = tested on: MDA-MB-468; assay: Cytotoxicity against human MDA-MB-468 cells assessed as reduction in cell viability measured after 96 hrs by CCK8 assay; type: functional, cell-based; conditions: MDA-MB-468, 96 h
[26] = tested on: MDA-MB-231; assay: Induction of endoplasmic reticulum stress in human MDA-MB-231 cells assessed as upregulation in CHOP gene expression at 5 to 10 uM incubated for 24 to 48 hrs by RT-PCR analysis; type: functional, cell-based; conditions: dose 5-10 µM, time 24-48 hrs
[27] = biological target: Poly [ADP-ribose] polymerase 1 (Homo sapiens) (UniProt P09874); assay: Induction of PARP1 degradation in human MDA-MB-468 cells at 5 uM incubated for 48 hrs in presence 5 uM PARP1 inhibitor olaparib by Western blot analysis; type: cell-based
[28] = biological target: Poly [ADP-ribose] polymerase 1 (Homo sapiens) (UniProt P09874); assay: Induction of PARP1 degradation in human MDA-MB-231 cells assessed as fold change in PARP1 protein expression at 5 uM pretreated for 2 hrs with pan-caspase inhibitor, Z-VAD-FMK followed by incubation with compound for 48 hrs by Western blot analysis relative to control; type: cell-based
[29] = biological target: Poly [ADP-ribose] polymerase 1 (Homo sapiens) (UniProt P09874); assay: Induction of PARP1 degradation in triple-negative human MDA-MB-231 cells assessed as fold change in PARP1 protein expression at 0.5 uM incubated for 24 hrs by Western blot analysis relative to control; type: cell-based
[30] = tested on: MDA-MB-231; assay: Induction of endoplasmic reticulum stress in human MDA-MB-231 cells assessed as increase in XBP-1s protein expression at 5 uM measured after 24 to 72 hrs by Western blot analysis; type: functional, cell-based; conditions: time 24-72 hrs
[31] = biological target: Poly [ADP-ribose] polymerase 1 (Homo sapiens) (UniProt P09874); assay: Induction of PARP1 degradation in triple-negative human MDA-MB-231 cells assessed as fold change in PARP1 protein expression at 0.01 uM incubated for 24 hrs by Western blot analysis relative to control; type: cell-based

Chain of Poly [ADP-ribose] polymerase 1 (Homo sapiens) (P09874 whole entry): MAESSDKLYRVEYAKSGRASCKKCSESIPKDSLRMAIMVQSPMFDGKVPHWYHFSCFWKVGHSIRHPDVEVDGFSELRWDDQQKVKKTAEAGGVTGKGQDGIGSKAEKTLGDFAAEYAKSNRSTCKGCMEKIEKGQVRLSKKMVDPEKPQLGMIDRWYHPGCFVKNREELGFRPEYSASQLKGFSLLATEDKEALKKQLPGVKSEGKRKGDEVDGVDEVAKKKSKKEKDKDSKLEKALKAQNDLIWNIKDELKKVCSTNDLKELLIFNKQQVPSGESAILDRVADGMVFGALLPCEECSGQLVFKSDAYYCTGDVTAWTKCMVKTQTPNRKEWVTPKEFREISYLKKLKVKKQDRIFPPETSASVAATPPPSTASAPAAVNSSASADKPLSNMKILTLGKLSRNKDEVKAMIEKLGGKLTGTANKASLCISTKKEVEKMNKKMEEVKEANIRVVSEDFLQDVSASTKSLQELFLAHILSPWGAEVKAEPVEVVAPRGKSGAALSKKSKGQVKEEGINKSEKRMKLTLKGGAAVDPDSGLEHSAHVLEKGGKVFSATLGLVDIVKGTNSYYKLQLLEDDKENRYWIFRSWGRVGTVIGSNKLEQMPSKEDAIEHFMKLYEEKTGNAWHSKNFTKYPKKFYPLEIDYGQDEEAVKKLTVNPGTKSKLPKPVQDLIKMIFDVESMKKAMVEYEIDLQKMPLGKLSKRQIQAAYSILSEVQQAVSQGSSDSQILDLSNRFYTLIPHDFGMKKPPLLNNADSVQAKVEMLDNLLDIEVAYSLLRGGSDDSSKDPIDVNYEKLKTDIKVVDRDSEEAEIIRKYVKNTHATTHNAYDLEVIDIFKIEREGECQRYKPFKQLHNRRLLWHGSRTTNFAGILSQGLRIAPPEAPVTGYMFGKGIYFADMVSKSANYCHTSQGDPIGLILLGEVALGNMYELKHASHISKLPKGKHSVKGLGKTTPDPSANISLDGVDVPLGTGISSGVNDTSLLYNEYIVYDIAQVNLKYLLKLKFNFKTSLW

fold change (FC) [1]: 0.7 | fold change (FC) [2]: 0.3 | fold change (FC) [3]: 0.6 | fold change (FC) [6]: 0.8 | Activity [7]: 60% | fold change (FC) [8]: 0.1 | fold change (FC) [11]: 0.7 | Activity [12]: inactive | fold change (FC) [14]: 0.8 | fold change (FC) [15]: 0.3 | fold change (FC) [16]: 0.9 | Activity [17]: inactive | fold change (FC) [21]: 0.1 | fold change (FC) [23]: 0.2 | Activity [27]: inactive | fold change (FC) [28]: 0.3 | fold change (FC) [29]: 0.8 | fold change (FC) [31]: 0.9
SMILES: O=C(CC1c2ccccc2-c2ccccc21)N1CCN(C(=O)c2cc(Cc3n[nH]c(=O)c4ccccc34)ccc2F)CC1
Activity [4]: Active | Activity [5]: Active | IC50 [9]: 2.1 µM | Activity [10]: Active | Activity [13]: Active | Activity [18]: Active | Activity [19]: Active | Activity [20]: Active | Activity [22]: Active | Activity [24]: Active | IC50 [25]: 5.72 µM | Activity [26]: Active | Activity [30]: Active
